Entries after “also recorded” stand apart in the source; their conditions may differ.
Legend:
beta-glucuronidase = conditions: cells, blood, urine, intestine (and liver); cited from earlier work
[1] = tested on: established DMBA-induced mammary tumors; test: Growth of established DMBA-induced rat mammary tumors, Example II; assay type: in vivo, female Sprague Dawley rats; conditions: for increase of tumor size / decrease of mammary tumor size: 25 days; for increase of tumor size: controls 98%; for tumor growth: diets supplemented with low ineffective doses; for effect on tumor growth/development when fed separately: low (ineffective) dosages fed separately
Procedure: Louis, Mo.) in 1.0 ml of sesame oil, Abou-Issa et al., Proc. Natl. Acad. Sci. U.S.A., supra. […] Tumor sizes were measured in all the rats just before placing them on the following experimental diets (Groups I-VI): (I) rat chow (RMH 3200, Pro Lab, Syracuse, N.Y.); […] Natl. Acad. Sci. U.S.A., supra. The latter vehicle was added to the diet of all six groups. The additives were blended into the diet with a mechanical mixer. All the tumors that developed within the time frame of this example are histologically adenocarcinomas. This finding has been previously reported by Huggins et al., Mammary cancer induced by a single feeding of polynuclear hydrocarbons, and its suppression, Nature, 185:204-207 (1961), in this animal model under the same conditions, and has been confirmed in several indentical experiments. At later time periods beyond the time frame of this example fibroadenomas usually develop, Welsch et al., In "Cellular and Molecular Biology of Mammary Cancer", ([…] and E. Anderson, eds.) Plenum Press, N.Y. 1987, pp 163-179. Tumor measurements were began at the time the rats were placed on the experimental diets and were continued twice weekly throughout the duration of the experiment. Two axes were measured - the longest axis (L) and the axis at right angles to the longest (W), using a vernier caliper. […] Weights of the rats on the control and experimental diets were recorded weekly.

sex hormones = conditions: CGT diet; anti-promotional effect; cited from earlier work
[2] = tested on: 7,12-dimethylbenz(a)anthracene-induced mammary tumorigenesis; conditions: cited from earlier work
[3] = Body weight gain of rats, Example I (FIG. 4); assay type: in vivo, female Sprague Dawley rats; conditions: prolonged feeding of diets containing CGT and HPR
[4] = Body weight of rats, Example II; assay type: in vivo, female Sprague Dawley rats; conditions: for Final Weight: end of experiment; for Initial Weight: just before treatment
Procedure: Rat mammary tumors were induced by treating one hundred 50 day old female Sprague Dawley rats (Harlan Industries, Indianapolis, Ind.) by gavage with a single dose of 15 mg of 7,12-dimethylbenz(a)anthracene (Sigma Chemical Co., St. Louis, Mo.) in 1.0 ml of sesame oil, Abou-Issa et al., Proc. Natl. Acad. Sci. U.S.A., supra. The rats were maintained on a chow diet ad libitum until the tumors had formed in 70% of the rats and had reached a size of approximately 2.0 cm in diameter; 4 months later at which time they were randomized into six groups of 10 rats each. […] The latter vehicle was added to the diet of all six groups. The additives were blended into the diet with a mechanical mixer.
Tumor regression is indicated by at least 20% reduction in tumor size and each tumor is compared to its initial size on day zero. Weights of the rats on the control and experimental diets were recorded weekly.

chemical carcinogenesis = conditions: sustained release dietary form; liver, lung, skin, mammary gland; cited from earlier work
Progesterone Receptors = test: Progesterone receptors of established DMBA-induced mammary tumors; assay type: in vivo, female Sprague Dawley rats; conditions: N 7
Procedure: (§1) Estrogen and progesterone receptors were measured in the OSU Hormone Receptor Laboratory by the multipoint dextran-coated charcoal method as previously described in Schuller et al., Estrogen and progesterone receptors in head and neck cancer, Arch. […] The data of specific binding were analyzed by Scatchard, The Attraction of proteins for small molecules and ions, Ann. N.Y. Acad. Sci. 51:660-672 (1949), plots to determine the equilibrium dissociation constant (Kd) and binding capacity expressed as femtomoles of estradiol or progesterone (R-5020) specifically bound per mg of cytosol protein for estrogen and progesterone receptors respectively. Cytosol protein concentrations were determined by the procedure of Lowry et al., Protein measurement with the folin phenol reagent, J. Biol. Chem. 193:265-275 (1951).

[5] = as calcium glucarate; cited from earlier work
[6] = tested on: DMBA-induced mammary tumors; test: DMBA-induced mammary tumor formation (chemoprevention), Example I; assay type: in vivo, female Sprague Dawley rats; conditions: for No. of Rats with Tumors / Total No. Tumors: 20 rats
Procedure: They were maintained on the diets for approximately 4 mos., and were examined (palpated) for mammary tumors weekly. […] The retinoid (HPR) was first dissolved in 25 ml of a vehicle consisting of ethanol-tricaprylin-6% α-tocopherol, then thoroughly mixed with powdered rat chow.

Estrogen Receptors = test: Estrogen receptors of established DMBA-induced mammary tumors; assay type: in vivo, female Sprague Dawley rats; conditions: N 7
Procedure: as §1

[7] = CGT-supplemented diet; cited from earlier work
[8] = tested on: established mammary tumors; test: HPR on established mammary tumors in CD8 F1 mice; assay type: in vivo; conditions: CD8 F1 mice with established mammary tumors
MCF-7 cells = test: Growth of MCF-7 cells (GL, HPR, GL and HPR), Table II; assay type: cell-based, human; conditions: 5 days; for No. of viable cells: mean ± SE of three experiments
From the text: The values shown are the mean +/- ISE for three experiments counted in triplicates. The numbers in parenthesis indicate the number of free floating (mostly non viable) cells in the media.

[9] = rat, in vivo; cited from earlier work
[10] = tested on: established DMBA-induced mammary tumors; test: HPR on already established DMBA-induced mammary tumors; assay type: in vivo, female Sprague Dawley rats
Procedure: When higher doses (2 mmol/kg diet) of HPR were used, growth arrest was followed within 5 to 10 days by 30% regression of the DMBA-induced mammary tumors. Also, HPR (0.1 uM) inhibited the […] growth of the human breast cancer cell line (MCF-7) to 50% of the control within 7 days.

O=C(O)[C@@H](O)[C@@H](O)[C@H](O)[C@@H](O)C(=O)[O-].[K+] [potassium hydrogen glucarate, reference compound]
inhibition of beta-glucuronidase (beta-glucuronidase): effective as inhibitors of beta-glucuronidase

O=C([O-])[C@@H](O)[C@@H](O)[C@H](O)[C@@H](O)C(=O)[O-].[Ca+2] [CGT, calcium glucarate]
increase of tumor size ([1]; CGT 64 mmol/kg): 55%
decrease of mammary tumor size ([1]; CGT 128 mmol/kg): 25%
tumor growth [1]: continued to grow
effect on tumor growth/development when fed separately [1]: enhanced tumor growth; also recorded: no observable inhibitory effect and indeed enhanced tumor development
steady-state level of sex hormones (sex hormones): reduction in the steady-state level of sex hormones
tumor induction relative to controls ([2]; 4% CGT diet from two weeks after carcinogen, by 28 weeks): 30 % of that in the controls
regression of tumors ([2]; chow diet supplemented with CGT, some tumors): underwent regression
effect on weight gain [3]: did not affect weight gain
Final Weight ([4]; CGT (2%)): 415 +/- 15 gm
Initial Weight ([4]; CGT (2%)): 401 +/- 10 gm
Final Weight ([4]; CGT (4%)): 429 +/- 26 gm
Initial Weight ([4]; CGT (4%)): 404 +/- 22 gm
chemopreventive activity (chemical carcinogenesis): potent chemopreventative agent
inhibition of beta-glucuronidase (beta-glucuronidase): effective as inhibitors of beta-glucuronidase
Progesterone Receptors (Progesterone Receptors; CGT (2%)): 84.4 +/- 17.0 Fmoles/mg Protein
Progesterone Receptors (Progesterone Receptors; CGT (4%)): 82.0 +/- 16.0 Fmoles/mg Protein
dietary dosage that is non-toxic [5]: up to 10 % in the diet
Tumor Incidence ([6]; 1% CGT in diet): 55
Tumors Per Rat ([6]; 1% CGT in diet): 1.0
No. of Rats with Tumors ([6]; 1% CGT in diet): 11
Total No. Tumors ([6]; 1% CGT in diet): 20
Tumor Incidence ([6]; 2% CGT in diet): 55
Tumors Per Rat ([6]; 2% CGT in diet): 1.0
No. of Rats with Tumors ([6]; 2% CGT in diet): 11
Total No. Tumors ([6]; 2% CGT in diet): 20
Tumor Incidence ([6]; 4% CGT in diet): 35
Tumors Per Rat ([6]; 4% CGT in diet): 0.5
No. of Rats with Tumors ([6]; 4% CGT in diet): 7
Total No. Tumors ([6]; 4% CGT in diet): 10
inhibition of tumor incidence ([6]; CGT (4%)): 50-60%
inhibition of tumors/rat ([6]; CGT (4%)): 50-65%
minimum dosage used alone consistent with maximum inhibition of carcinogenesis ([6]; CGT alone, 4 gm/100 gm of chow diet): ~4 gm %
Estrogen Receptors (Estrogen Receptors; CGT (2%)): 42.7 +/- 7.0 Fmoles/mg Protein
Estrogen Receptors (Estrogen Receptors; CGT (4%)): 44.3 +/- 5.9 Fmoles/mg Protein
food quantity and weight gain [7]: identical to those on the normal chow diet

CC1=C(/C=C/C(C)=C/C=C/C(C)=C/C(=O)Nc2ccc(O)cc2)C(C)(C)CCC1 [HPR, N-(4-hydroxyphenyl) retinamide]
increase of tumor size ([1]; HPR 0.75 mmol/kg): 70%
decrease of mammary tumor size ([1]; HPR 2 mmol/kg): 15%
tumor growth [1]: continued to grow
effect on tumor growth/development when fed separately [1]: no observable inhibitory effect and indeed enhanced tumor development
inhibition of tumor growth [8]: 50%
free floating (mostly non viable) cells, % of control (MCF-7 cells; HPR (5 × 10^-8 M)): 7 % of control
number of free floating (mostly non viable) cells (MCF-7 cells; HPR (5 × 10^-8 M)): 4160
No. of viable cells (MCF-7 cells; HPR (5 × 10^-8 M)): 33680 ± 2627
effect on weight gain [3]: did not affect weight gain
Final Weight ([4]; HPR (0.75 mmol/kg)): 421 +/- 14 gm
Initial Weight ([4]; HPR (0.75 mmol/kg)): 409 +/- 18 gm
Final Weight ([4]; HPR (2.0 mmol/kg)): 413 +/- 10 gm
Initial Weight ([4]; HPR (2.0 mmol/kg)): 401 +/- 13 gm
tissue trophism [9]: displays trophism for the mammary gland
Progesterone Receptors (Progesterone Receptors; HPR (0.75 mmol/kg)): 90.7 +/- 18.0 Fmoles/mg Protein
Progesterone Receptors (Progesterone Receptors; HPR (2.0 mmol/kg)): 89.3 +/- 13.7 Fmoles/mg Protein
Tumor Incidence ([6]; 0.75 mmol/kg diet HPR): 60
Tumors Per Rat ([6]; 0.75 mmol/kg diet HPR): 1.0
No. of Rats with Tumors ([6]; 0.75 mmol/kg diet HPR): 12
Total No. Tumors ([6]; 0.75 mmol/kg diet HPR): 20
inhibition of tumor incidence ([6]; HPR (1.5 mmol)): 50-60%
inhibition of tumors/rat ([6]; HPR (1.5 mmol)): 50-65%
minimum dosage used alone consistent with maximum inhibition of carcinogenesis ([6]; HPR alone, in diet): 1.0 to 1.5 mmol/kg
inhibition of tumor growth ([10]; 1.0 mmol/kg diet daily, within 10 days): 80-90%
tumor growth ([10]; 2 mmol/kg diet): growth arrest
regression of DMBA-induced mammary tumors ([10]; 2 mmol/kg diet, within 5 to 10 days after growth arrest): 30%
Estrogen Receptors (Estrogen Receptors; HPR (2.0 mmol/kg)): 50.6 +/- 8.4 Fmoles/mg Protein

O=C(O)[C@@H](O)[C@H]1OC(=O)[C@H](O)[C@H]1O [GL, D-glucaro-1,4-lactone]
free floating (mostly non viable) cells, % of control (MCF-7 cells; GL (10^-3 M)): 7 % of control
number of free floating (mostly non viable) cells (MCF-7 cells; GL (10^-3 M)): 4560
No. of viable cells (MCF-7 cells; GL (10^-3 M)): 32560 ± 1800
free floating (mostly non viable) cells, % of control (MCF-7 cells; GL (10^-4 M)): 6 % of control
number of free floating (mostly non viable) cells (MCF-7 cells; GL (10^-4 M)): 3440
No. of viable cells (MCF-7 cells; GL (10^-4 M)): 49480 + 3160
inhibition of beta-glucuronidase (beta-glucuronidase): potent inhibitor of beta-glucuronidase

2,4-di-O-acetyl-D-glucaro-1,4-lactone [reference compound]
inhibition of beta-glucuronidase (beta-glucuronidase): effective as inhibitors of beta-glucuronidase

Source: US5008291A, “Method and composition for achieving chemotherapeutic activity” (Ohio State University Research Foundation, priority 1989, dated 1991)
